The record followed here is ChEMBL document CHEMBL1150488 (1993).

Values after ≈ are worked out from the molar mass of the structure shown.

Common to all, as to assay type: functional
For assay [1], the system named is Bacteroides fragilis. Put plainly: Tested for zone of inhibition against Bacteroides fragilis UC6513 (1 mg/mL, 80 microL/12.7 mm).
Assay [2] concerns Staphylococcus aureus. Put plainly: The compound (1 mg/mL, 80 microL/12.7 mm) was tested for zone of inhibition against Staphylococcus aureus UC3665 (18H -, H: Hazy zone).
For assay [3], the system named is Staphylococcus epidermidis. Put plainly: Tested for zone of inhibition against Staphylococcus epidermidis UC719 (1 mg/mL, 80 microL/6.5 mm).
Assay [4] concerns Staphylococcus aureus. The assay is described as follows: Tested for zone of inhibition against Staphylococcus aureus UC6685 (1 mg/mL, 80 microL/6.5 mm).
For assay [5], the system named is Clostridium perfringens. The assay is described as follows: The compound (1 mg/mL, 80 microL/12.7 mm) was tested for zone of inhibition against Clostridium perfringens UC6509 (33H -, H: Hazy zone).
Assay [6] concerns Bacteroides fragilis. The assay is described as follows: Tested in vitro for its antibacterial activity against Bacteroides fragilis UC9370 [clindamycin 1 micro g/mL].
For another assay, the system named is Streptococcus pyogenes. Put plainly: Tsted in vitro for its antibacterial activity against Streptococcus pyogenes UC152.
Another assay deals with Fusobacterium nucleatum. The assay is described as follows: Tested in vitro for its antibacterial activity against Fusobacterium nucleatum UC6324.
Assay [7] concerns Bacteroides thetaiotaomicron. The assay is described as follows: Tested in vitro for its antibacterial activity against Bacteroides thetaiotaomicron UC 9014[clindamycin 2 micro g/mL].
Assay [8] relates to Staphylococcus aureus. Put plainly: Tested for zone of inhibition against Staphylococcus aureus UC3665 (1 mg/mL, 80 microL/12.7 mm).
A short description of assay [9]: Tested in vitro for its antibacterial activity against Peptococcus variabilis UC6320.
The subject of assay [10] is Prevotella melaninogenica. Put plainly: Tested in vitro for its antibacterial activity against Bacteroides melaninogenicus UC 6523.
For assay [11], the system named is Clostridium perfringens. Put plainly: Tested in vitro for its antibacterial activity against Clostridium perfringens UC6509.
For the next assay, the system named is Cutibacterium acnes. Put plainly: Tested in vitro for its antibacterial activity against Propionibacterium acnes UC6564.
Another assay concerns Escherichia coli. Put plainly: Tested in vitro for its antibacterial activity against Escherichia coli UC9379.
The subject of assay [12] is Clostridium perfringens. Put plainly: Tested for zone of inhibition against Clostridium perfringens UC6509.
The subject of assay [13] is Parabacteroides distasonis. The assay is described as follows: Tested in vitro for its antibacterial activity against Bacteroides distasonis UC6518.
Assay [14] concerns Staphylococcus epidermidis. The assay is described as follows: The compound (1 mg/mL, 80 microL/6.5 mm) was tested for zone of inhibition against Staphylococcus epidermidis UC719 (20H -, H: Hazy zone).
Assay [15] relates to Staphylococcus aureus. Put plainly: The compound (1 mg/mL, 80 microL/6.5 mm) was tested for zone of inhibition against Staphylococcus aureus UC6685 (21H -, H: Hazy zone).
The test system of assay [16] is Staphylococcus aureus. Put plainly: The compound (1 mg/mL, 80 microL/6.5 mm) was tested for zone of inhibition against Staphylococcus aureus UC6685 (38H -, H: Hazy zone).
The test system of assay [17] is Clostridium perfringens. Put plainly: The compound (1 mg/mL, 80 microL/12.7 mm) was tested for zone of inhibition against Clostridium perfringens UC6509 (22H -, H: Hazy zone).
Assay [18] relates to Staphylococcus epidermidis. The assay is described as follows: The compound (1 mg/mL, 80 microL/6.5 mm) was tested for zone of inhibition against Staphylococcus epidermidis UC719 (14H -, H: Hazy zone).
Assay [19] relates to Staphylococcus aureus. Put plainly: The compound (1 mg/mL, 80 microL/6.5 mm) was tested for zone of inhibition against Staphylococcus aureus UC6685 (20H -, H: Hazy zone).
Assay [20] deals with Clostridium perfringens. Put plainly: The compound (1 mg/mL, 80 microL/12.7 mm) was tested for zone of inhibition against Clostridium perfringens UC6509.
For assay [21], the system named is Bacteroides thetaiotaomicron. Put plainly: The compound (1 mg/mL, 80 microL/6.5 mm) was tested for zone of inhibition against Bacteroides thetaiotaomicron UC 6360.
Assay [22] has as its system Bacteroides thetaiotaomicron. Put plainly: The compound was tested in vitro for its antibacterial activity against Bacteroides thetaiotaomicron UC 6360.
Assay [23] has as its system Bacteroides fragilis. Put plainly: The compound was tested in vitro for its antibacterial activity against Bacteroides fragilis UC9370.

`CCCC(=O)OC[C@@H](C)[C@H]1CN(C(=O)c2ccccc2)C1=O`: the Diameter of inhibition zone amounted to 24 mm in the assay with Bacteroides fragilis [1]; 18 mm in the assay on Staphylococcus aureus [2]; 0 mm in assay [3]; 0 mm in the assay with Staphylococcus aureus [4]; 33 mm in the assay with Clostridium perfringens [5].

In general, MIC refers to the least concentration at which growth counts as inhibited. A high value points to a need for much substance. Consider `CCCC(=O)OC[C@@H](C)[C@H]1CN(C(=O)CCC)C1=O`, for which the MIC against Bacteroides fragilis [6] is 64 µg/mL (≈ 238 µM); against Streptococcus pyogenes, greater than 160 µg/mL; in the assay on Fusobacterium nucleatum it was 64 µg/mL (≈ 238 µM); in assay [7], 32 µg/mL (≈ 119 µM); in assay [9], 256 µg/mL (≈ 950 µM); in [10] it was 8 µg/mL (≈ 29.7 µM). In addition, the MIC with Clostridium perfringens [11] is 128 µg/mL (≈ 475 µM); in the assay on Cutibacterium acnes, 8 µg/mL (≈ 29.7 µM); against Escherichia coli, greater than 160 µg/mL; in assay [13], 128 µg/mL (≈ 475 µM). Moreover, the Diameter of inhibition zone was 28 mm in the assay on Staphylococcus aureus [8], 63 mm with Clostridium perfringens [12], 20 mm in assay [14] and 21 mm in the assay with Staphylococcus aureus [15].

For the compound `CCCCCC(=O)N1C[C@H]([C@H](C)CF)C1=O`, the Diameter of inhibition zone with Staphylococcus aureus [8] stood at 48 mm; in the assay with Staphylococcus aureus [16], 38 mm; in assay [3], 31 mm; in the assay on Clostridium perfringens [12] it was 79 mm.

With `CC(=O)OC/C(C)=C1\CN(C(C)=O)C1=O`, the Diameter of inhibition zone with Staphylococcus aureus [8] stood at 0 mm; in the assay on Bacteroides fragilis [1] it was 22 mm; in assay [3], 0 mm; with Staphylococcus aureus [4], 0 mm; in the assay with Clostridium perfringens [17], 22 mm.

Take `COCCOC(=O)N1C/C(=C(\C)CN=[N+]=[N-])C1=O`: the Diameter of inhibition zone came out at 14 mm in assay [18]; 26 mm in the assay with Staphylococcus aureus [8]; 0 mm in the assay on Bacteroides fragilis [1]; 20 mm with Staphylococcus aureus [19]; 20 mm in the assay with Clostridium perfringens [12].

Consider `CCCC(=O)OC/C(C)=C1\CN(C(=O)CCC)C1=O`, for which the Diameter of inhibition zone with Staphylococcus aureus [8] came to 0 mm; in the assay on Bacteroides fragilis [1], 25 mm; in the assay on Clostridium perfringens [20], 30 mm; in assay [3], 0 mm; with Staphylococcus aureus [4], 0 mm.

Consider `CC(=O)OC[C@@H](C)[C@H]1CN(C(C)=O)C1=O`, for which the MIC in the assay with Streptococcus pyogenes was greater than 512 µg/mL; against Fusobacterium nucleatum, 128 µg/mL (≈ 600 µM); in assay [9] it was greater than 256 µg/mL; in assay [10], 128 µg/mL (≈ 600 µM); in the assay with Clostridium perfringens [11], greater than 256 µg/mL; in assay [22] it was 128 µg/mL (≈ 600 µM). The MIC is 256 µg/mL (≈ 1200 µM) against Bacteroides fragilis [23], greater than 256 µg/mL against Cutibacterium acnes, greater than 512 µg/mL with Escherichia coli and greater than 256 µg/mL in assay [13]. Further, the Diameter of inhibition zone in assay [21] stood at 0 mm; in the assay on Staphylococcus aureus [8], 0 mm; with Bacteroides fragilis [1] it was 52 mm; with Staphylococcus aureus [4], 0 mm; in the assay with Clostridium perfringens [12], 36 mm.
